# From US7977332B2, “Insecticidal N-(heteroarylalkyl)alkanediamine derivatives” (FMC Corporation, priority 2003, dated 2011)
# Tested on: tobacco budworm (Heliothis virescens [Fabricius])
# Assay: surface-treated diet test against tobacco budworm
# Type: in vivo
# Conditions: 0.25 millimolar on the surface of the diet, second instar larvae, five-day exposure; for Percent Growth Inhibition: insect weight relative to untreated controls
# Protocol: Candidate insecticides were evaluated for activity against the tobacco budworm (Heliothis virescens [Fabricius]) in a surface-treated diet test.
# In this test one mL of molten (65-70° C.) wheat germ-based artificial diet was pipetted into each well of a four by six (24 well) multi-well plate (ID# 430345-15.5 mm dia.×17.6 mm deep; Corning Costar Corp., One Alewife Center, Cambridge, Mass. 02140). The diet was allowed to cool to ambient temperature before treatment with candidate insecticide.
# For a determination of insecticidal activity, solutions of the candidate insecticides were prepared for testing using a Packard 204DT Multiprobe® Robotic System (Packard Instrument Company, 800 Research Parkway, Meriden, Conn. 06450), in which the robot first diluted a standard 50 millimolar DMSO solution of candidate insecticide with a 1:1 water/acetone solution (V/V) in a ratio of 1:7 stock solution to water/acetone. The robot subsequently pipetted 40 microliters of the so-prepared solution onto the surface of the diet in each of three wells in the 24 multi-well plate. The process was repeated with solutions of seven other candidate insecticides. Once treated, the contents of the multi-well plate were allowed to dry, leaving 0.25 millimoles of candidate insecticide on the surface of the diet, or a concentration of 0.25 millimolar. Appropriate untreated controls containing only DMSO on the diet surface were also included in this test.
# For evaluations of the insecticidal activity of a candidate insecticide at varying rates of application, the test was established as described above using sub-multiples of the standard 50 millimolar DMSO solution of candidate insecticide. For example, the standard 50 millimolar solution was diluted by the robot with DMSO to give 5, 0.5, 0.05, 0.005, 0.0005 millimolar, or more dilute solutions of the candidate insecticide. In these evaluations there were six replicates of each rate of application placed on the surface of the diet in the 24 multi-well plate, for a total of four rates of application of candidate insecticide in each plate.
# In each well of the test plate was placed one second instar tobacco budworm larvea, each weighing approximately five milligrams. After the larvae were placed in each well, the plate was sealed with clear polyfilm adhesive tape. The tape over each well was perforated to ensure an adequate air supply. The plates were then held in a growth chamber at 25° C. and 60% relative humidity for five days (light 14 hours/day).
# After the five-day exposure period insecticidal activity for each rate of application of candidate insecticide was assessed as percent inhibition of insect weight relative to the weight of insects from untreated controls, and percent mortality when compared to the total number of insects infested.
# The test compounds of formula I are identified by numbers that correspond to those in Table 1.
Compound,Percent Growth Inhibition,Percent Mortality
CSC(=C[N+](=O)[O-])NCCN(CC=Cc1ccccc1)Cc1ccc(Cl)nc1 [Compound 230],88%,–
C#CCN(CCNC(=C[N+](=O)[O-])OCC1CCCCC1)Cc1ccc(Cl)nc1 [Compound 256],100%,–
O=[N+]([O-])C=C(NCCN(Cc1ccc(Cl)nc1)Cc1ccc(Cl)nc1)SCc1cccc(C(F)(F)F)c1 [Compound 323],100%,–
"C#CCN(CCNC(=C[N+](=O)[O-])SC)Cc1ccc(Cl)nc1 [Compound 248, {2-[((1Z)-1-methylthio-2-nitrovinyl)amino]ethyl}[(6-chloro(3-pyridyl)methyl]prop-2-ynylamine]",100%,100%
C#CCN(CCN/C(=C/[N+](=O)[O-])OC)Cc1ccc(Cl)nc1 [Compound 244],100%,83%
C=CCN(CCNC(=C[N+](=O)[O-])OC)Cc1ccc(Cl)nc1 [Compound 242],96%,83%
CCN(CCNC(=C[N+](=O)[O-])OC)Cc1ccc(Cl)nc1 [Compound 41],100%,–
CSC(=C[N+](=O)[O-])NCCN(CCC#Cc1ccc(Cl)cc1)Cc1ccc(Cl)nc1 [Compound 301],100%,–
CC(C)CSC(=C[N+](=O)[O-])NCCN(Cc1ccc(Cl)nc1)Cc1ccc(Cl)nc1 [Compound 202],100%,–
CSC(=C[N+](=O)[O-])NCCN(Cc1ccc(Cl)nc1)CC1CCOC1 (centres unmarked) [Compound 14],100%,–
O=[N+]([O-])C=C(NCCN(Cc1ccccc1)Cc1ccc(Cl)nc1)SCc1ccc(C(F)(F)F)cc1 [Compound 307],100%,–
